Data reported in ChEMBL document CHEMBL1201862, “PubChem BioAssay data set” (2004).
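Interpolation was linear, between the two tested concentrations surrounding the appropriate level; five concentrations were tested over 48 hours in 96-well plates. At the GI50, growth is halved.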 Calls of active or inactive are those of the source. Cut-off read from the data, not from the text of the source: active = GI50 up to about 1.1 µM and inactive = higher.

Assays:
Assay in all cases: NCI-60 cell line screen, 48 h
786-0 = tested on: 786-0
A498 = tested on: A498
A549 = tested on: A549
ACHN = tested on: ACHN
BT-549 = tested on: BT-549
CAKI-1 = tested on: CAKI-1
CCRF-CEM = tested on: CCRF-CEM
COLO 205 = tested on: COLO 205
DU-145 = tested on: DU-145
EKVX = tested on: EKVX
HCC 2998 = tested on: HCC 2998
HCT-116 = tested on: HCT-116
HCT-15 = tested on: HCT-15
HL-60 = tested on: HL-60
HOP-62 = tested on: HOP-62
HOP-92 = tested on: HOP-92
HT-29 = tested on: HT-29
Hs-578T = tested on: Hs-578T
IGROV-1 = tested on: IGROV-1
K562 = tested on: K562
KM12 = tested on: KM12
LOX IMVI = tested on: LOX IMVI
M14 = tested on: M14
MCF7 = tested on: MCF7
MDA-MB-231 = tested on: MDA-MB-231
MDA-MB-435 = tested on: MDA-MB-435
MDA-N = tested on: MDA-N
MOLT-4 = tested on: MOLT-4
Malme-3M = tested on: Malme-3M
NCI-H226 = tested on: NCI-H226
NCI-H23 = tested on: NCI-H23
NCI-H460 = tested on: NCI-H460
NCI-H522 = tested on: NCI-H522
NCI/ADR-RES = tested on: NCI/ADR-RES
OVCAR-3 = tested on: OVCAR-3
OVCAR-4 = tested on: OVCAR-4
OVCAR-5 = tested on: OVCAR-5
OVCAR-8 = tested on: OVCAR-8
PC-3 = tested on: PC-3
RPMI-8226 = tested on: RPMI-8226
RXF 393 = tested on: RXF 393
SF-268 = tested on: SF-268
SF-295 = tested on: SF-295
SF-539 = tested on: SF-539
SK-MEL-28 = tested on: SK-MEL-28
SK-MEL-2 = tested on: SK-MEL-2
SK-MEL-5 = tested on: SK-MEL-5
SK-OV-3 = tested on: SK-OV-3
SN12C = tested on: SN12C
SNB-19 = tested on: SNB-19
SNB-75 = tested on: SNB-75
SR = tested on: SR
SW-620 = tested on: SW-620
T47D = tested on: T47D
TK-10 = tested on: TK-10
U-251 = tested on: U-251
UACC-257 = tested on: UACC-257
UACC-62 = tested on: UACC-62
UO-31 = tested on: UO-31

CC1CCC2C(C)C3C(CC4C5CC=C6CC(OC7OC(CO)C(O)C(OC8OC(CO)C(O)C(O)C8O)C7OC7OC(C)C(O)C(O)C7O)CCC6(C)C5CCC43C)N2C1 (configuration not stated)
GI50 (786-0): 9.42 µM (inactive)
GI50 (A498): 17.5 µM (inactive)
GI50 (A549): 7.05 µM (inactive)
GI50 (ACHN): 8.89 µM (inactive)
GI50 (BT-549): 16.5 µM (inactive)
GI50 (CAKI-1): 11.3 µM (inactive)
GI50 (CCRF-CEM): 9.66 µM (inactive)
GI50 (COLO 205): 16.7 µM (inactive)
GI50 (DU-145): 18.9 µM (inactive)
GI50 (EKVX): 9.27 µM (inactive)
GI50 (HCC 2998): 18.1 µM (inactive)
GI50 (HCT-116): 11.1 µM (inactive)
GI50 (HCT-15): 17.3 µM
GI50 (HL-60): 8.24 µM (inactive)
GI50 (HOP-62): 17.3 µM (inactive)
GI50 (HOP-92): 17.5 µM (inactive)
GI50 (HT-29): 12 µM (inactive)
GI50 (Hs-578T): 13.7 µM (inactive)
GI50 (IGROV-1): 12.4 µM (inactive)
GI50 (K562): 16 µM (inactive)
GI50 (KM12): 14.8 µM (inactive)
GI50 (LOX IMVI): 15 µM (inactive)
GI50 (M14): 4.67 µM (inactive)
GI50 (MCF7): 13.8 µM (inactive)
GI50 (MDA-MB-231): 13.6 µM (inactive)
GI50 (MDA-MB-435): 9.12 µM (inactive)
GI50 (MDA-N): 10.7 µM (inactive)
GI50 (MOLT-4): 28.6 µM (inactive)
GI50 (Malme-3M): 27.7 µM (inactive)
GI50 (NCI-H226): 20.8 µM (inactive)
GI50 (NCI-H23): 14.7 µM (inactive)
GI50 (NCI-H460): 18.5 µM (inactive)
GI50 (NCI-H522): 15.1 µM (inactive)
GI50 (NCI/ADR-RES): 17.9 µM (inactive)
GI50 (OVCAR-3): 17.4 µM (inactive)
GI50 (OVCAR-4): 8.13 µM (inactive)
GI50 (OVCAR-5): 14.3 µM (inactive)
GI50 (OVCAR-8): 15 µM (inactive)
GI50 (PC-3): 14.9 µM (inactive)
GI50 (RPMI-8226): 19.9 µM (inactive)
GI50 (RXF 393): 10.2 µM (inactive)
GI50 (SF-268): 15.9 µM (inactive)
GI50 (SF-295): 10.2 µM (inactive)
GI50 (SF-539): 8.83 µM (inactive)
GI50 (SK-MEL-28): 7.94 µM (inactive)
GI50 (SK-MEL-2): 19.5 µM (inactive)
GI50 (SK-MEL-5): 18.1 µM (inactive)
GI50 (SK-OV-3): 16 µM (inactive)
GI50 (SN12C): 11.1 µM (inactive)
GI50 (SNB-19): 10.5 µM (inactive)
GI50 (SNB-75): 9.57 µM (inactive)
GI50 (SR): 15.1 µM (inactive)
GI50 (SW-620): 15.6 µM (inactive)
GI50 (T47D): 19.3 µM (inactive)
GI50 (TK-10): 16.3 µM (inactive)
GI50 (U-251): 16 µM (inactive)
GI50 (UACC-257): 16.1 µM (inactive)
GI50 (UACC-62): 13.8 µM (inactive)
GI50 (UO-31): 6.37 µM (inactive)

CC(C)NC(=O)OCc1c(COC(=O)NC(C)C)c(-c2ccc[n+](COC(=O)C3CCCCC3)c2)n2c1CCC2
GI50 (786-0): 28.1 µM (inactive)
GI50 (A498): 29.2 µM (inactive)
GI50 (A549): 82 µM (inactive)
GI50 (ACHN): 27.3 µM (inactive)
GI50 (BT-549): 48.1 µM (inactive)
GI50 (CAKI-1): 20.7 µM (inactive)
GI50 (CCRF-CEM): > 100 µM (inactive)
GI50 (COLO 205): 93.1 µM (inactive)
GI50 (DU-145): 28.4 µM (inactive)
GI50 (EKVX): > 100 µM (inactive)
GI50 (HCC 2998): > 100 µM (inactive)
GI50 (HCT-116): 56.4 µM (inactive)
GI50 (HCT-15): 85.5 µM
GI50 (HL-60): > 100 µM (inactive)
GI50 (HOP-62): 37.7 µM (inactive)
GI50 (HOP-92): 39.4 µM (inactive)
GI50 (HT-29): 90.6 µM (inactive)
GI50 (Hs-578T): > 100 µM (inactive)
GI50 (IGROV-1): > 100 µM (inactive)
GI50 (K562): > 100 µM (inactive)
GI50 (KM12): > 100 µM (inactive)
GI50 (LOX IMVI): 31.6 µM (inactive)
GI50 (M14): 56 µM (inactive)
GI50 (MCF7): 36.6 µM (inactive)
GI50 (MDA-MB-231): 40.5 µM (inactive)
GI50 (MDA-MB-435): > 100 µM (inactive)
GI50 (MDA-N): > 100 µM (inactive)
GI50 (MOLT-4): 45.5 µM (inactive)
GI50 (Malme-3M): 62.5 µM (inactive)
GI50 (NCI-H226): > 100 µM (inactive)
GI50 (NCI-H23): 28.6 µM (inactive)
GI50 (NCI-H460): 27.9 µM (inactive)
GI50 (NCI-H522): 25.1 µM (inactive)
GI50 (NCI/ADR-RES): 60 µM (inactive)
GI50 (OVCAR-3): > 100 µM (inactive)
GI50 (OVCAR-4): 40.6 µM (inactive)
GI50 (OVCAR-5): 78.3 µM (inactive)
GI50 (OVCAR-8): 51.2 µM (inactive)
GI50 (PC-3): 48.6 µM (inactive)
GI50 (RPMI-8226): > 100 µM (inactive)
GI50 (RXF 393): 38.9 µM (inactive)
GI50 (SF-268): 42.6 µM (inactive)
GI50 (SF-295): 47.8 µM (inactive)
GI50 (SF-539): 35.8 µM (inactive)
GI50 (SK-MEL-28): > 100 µM (inactive)
GI50 (SK-MEL-2): 44.6 µM (inactive)
GI50 (SK-MEL-5): 70.8 µM (inactive)
GI50 (SK-OV-3): 39.1 µM (inactive)
GI50 (SN12C): 47.6 µM (inactive)
GI50 (SNB-19): > 100 µM (inactive)
GI50 (SNB-75): 46.8 µM (inactive)
GI50 (SR): > 100 µM (inactive)
GI50 (SW-620): 57.4 µM (inactive)
GI50 (T47D): 57.8 µM (inactive)
GI50 (TK-10): 94.6 µM (inactive)
GI50 (U-251): 55.6 µM (inactive)
GI50 (UACC-257): > 100 µM (inactive)
GI50 (UACC-62): 24.8 µM (inactive)
GI50 (UO-31): 40.6 µM (inactive)

COc1cc(C)cc2c1C(=O)C(Br)=CC2=O
GI50 (786-0): 3.92 µM (inactive)
GI50 (A498): 20.1 µM (inactive)
GI50 (A549): 21.2 µM (inactive)
GI50 (ACHN): 2.52 µM (inactive)
GI50 (BT-549): 11.1 µM (inactive)
GI50 (CAKI-1): 1.63 µM (inactive)
GI50 (CCRF-CEM): 0.867 µM (active)
GI50 (COLO 205): 1.72 µM (inactive)
GI50 (DU-145): 18.3 µM (inactive)
GI50 (EKVX): 17.7 µM (inactive)
GI50 (HCC 2998): 19.5 µM (inactive)
GI50 (HCT-116): 6.7 µM (inactive)
GI50 (HCT-15): 17.4 µM
GI50 (HL-60): 1.53 µM (inactive)
GI50 (HOP-62): 17.8 µM (inactive)
GI50 (HOP-92): 3.09 µM (inactive)
GI50 (HT-29): 8.22 µM (inactive)
GI50 (Hs-578T): 29.4 µM (inactive)
GI50 (IGROV-1): 17.7 µM (inactive)
GI50 (K562): 1.93 µM (inactive)
GI50 (KM12): 15 µM (inactive)
GI50 (LOX IMVI): 8.59 µM (inactive)
GI50 (M14): 3.3 µM (inactive)
GI50 (MCF7): 4.48 µM (inactive)
GI50 (MDA-MB-231): 14.7 µM (inactive)
GI50 (MDA-MB-435): 2.29 µM (inactive)
GI50 (MDA-N): 3.56 µM (inactive)
GI50 (MOLT-4): 2.39 µM (inactive)
GI50 (Malme-3M): 2.1 µM (inactive)
GI50 (NCI-H226): 17.4 µM (inactive)
GI50 (NCI-H23): 15.5 µM (inactive)
GI50 (NCI-H460): 19.4 µM (inactive)
GI50 (NCI-H522): 2.03 µM (inactive)
GI50 (NCI/ADR-RES): 27.3 µM (inactive)
GI50 (OVCAR-3): 4.82 µM (inactive)
GI50 (OVCAR-4): 2.75 µM (inactive)
GI50 (OVCAR-5): 19.8 µM (inactive)
GI50 (OVCAR-8): 6.34 µM (inactive)
GI50 (PC-3): 17 µM (inactive)
GI50 (RPMI-8226): 3.13 µM (inactive)
GI50 (RXF 393): 3.31 µM (inactive)
GI50 (SF-268): 16.4 µM (inactive)
GI50 (SF-295): 16.2 µM (inactive)
GI50 (SF-539): 15.2 µM (inactive)
GI50 (SK-MEL-28): 17.4 µM (inactive)
GI50 (SK-MEL-2): 14.4 µM (inactive)
GI50 (SK-MEL-5): 12.6 µM (inactive)
GI50 (SK-OV-3): 19.6 µM (inactive)
GI50 (SN12C): 15.7 µM (inactive)
GI50 (SNB-19): 16.3 µM (inactive)
GI50 (SNB-75): 16.9 µM (inactive)
GI50 (SR): 4.57 µM (inactive)
GI50 (SW-620): 1.89 µM (inactive)
GI50 (T47D): 2.21 µM (inactive)
GI50 (TK-10): 2.49 µM (inactive)
GI50 (U-251): 19.5 µM (inactive)
GI50 (UACC-257): 13.7 µM (inactive)
GI50 (UACC-62): 9.71 µM (inactive)
GI50 (UO-31): 5.38 µM (inactive)
